Test results: patent US11001558B2, “Asymmetric bisaminoquinolines and bisaminoquinolines with varied linkers as autophagy inhibitors for cancer and other therapy” (THE TRUSTEES OF THE UNIVERSITY OF PENNSYLVANIA, priority 2014, dated 2021)

Columns and labels:
A375 cells [1] = assay: Apoptosis by annexin V detection; conditions: for apoptosis (annexin V): 1 uM compound, 24 hour timepoint
Method: (C) Apoptosis reflected by annexin V detection in A375 cells treated with 1 uM compound at the 24 hours. (D) Apoptosis reflected by annexin V detection in A375 cells treated with indicated compounds at 3 uM for 24 or 48 hours.

melanoma cell lines = assay: LC3B and actin immunoblotting (LC3II/actin quantification); conditions: 1 uM, 24 hours, 3 melanoma cell lines, compared with Lys05
Method: Each compound was administered at 1 uM concentrations for 24 hours.
As an initial method of determining the effects of the longer linker compounds on autophagic vesicle accumulation, a series of most cytotoxic dimeric CQ's were used to treat 3 different cell lines (1 uM, 24 hours). Cell lysates were collected and immunoblotting against LC3 and actin as performed (FIG. 4).

A375 cells [2] = assay: Flow cytometry quantification of reactive oxygen species (DHR_123 fluorescence); conditions: 1 uM compound, 24 hours
[3] = test system: A375P mCherry-eGFP-LC3 cells; assay: Flow cytometry green/red ratio, inhibition of autophagic flux; type: cell-based; conditions: for inhibition of autophagic flux (green/red ratio): 1 uM compound, 24 hours
Excerpt: PLX: PLX4720; TRA: trametinib.

[4] = test system: A375P mCherry eGFP-LC3 cells grown into 3 dimensional spheroids; assay: 3D spheroid growth and invasion in collagen; type: cell-based; conditions: 3 uM, 72 hours
Method: A375P mCherry eGFP-LC3 cells grown into 3 dimensional spheroids and implanted in collagen. After 72 hours of treatment with 3 uM of indicated compound, cells were counterstained with DAPI. (A) fluorescence microscopy was used to visualize autophagy inhibition (bright areas), inhibition of invasion into the collagen and (B) quantification of the DAPI fluorescence indicative of cell death. *p<0.05
The 3D spheroid model has been used extensively to mimic the tumor microenvironment (Ma et al Clin Can Research 2011). Autophagy levels are more reflective of in vivo autophagy dynamics in the 3D models compared to traditional two dimensional cell culture. In this format cancer cells are grown as spheroids and then implanted in a collagen matrix. The spheroids then begin to invade and grow within this tissue microenvironment.

A375P melanoma cells = assay: 72 hour alamar blue viability assay; type: cell-based; conditions: spermine or spermidine linker compared with Lys01
Method: […]. A375 P cells seeded in a 384 well format were treated with a 10 point dilution of concentrations (0.01 nM-10 uM) (B) Colony formation assay in soft agar. Cells from the indicated melanoma (A375, WM983B, SKMEL5) and pancreatic cancer (PANC1, CAPAN1) cell lines were plated in soft agar. Medium with compound was changed every 48 hours. Crystal violet staining was used to visualize formed colonies after 2 weeks.
A375P melanoma cells were plated in a 384 well format and treated with increasing concentrations of […] derivatives. After 72 hours the cells were analyzed by alamar blue. Complete data is in Table 1, FIG. 10. (A) IC50 according to symmetry of linker (B) IC50 by linker length.
[…]. After 72 hours incubation at 37 degrees, Alamar blue was applied and viability was determined using absorbance. Absorbance was normalized to DMSO control, and a log IC50 was estimated using Graphpad Prism software.
. After 72 hours incubation at 37 degrees, Alamar blue was applied and viability was determined using absorbance. Absorbance was normalized to DMSO control, and a log IC50 was estimated using Graphpad Prism software (FIG. 11, Table 1). LN229 cells produced similar data (data not shown). The increased cytotoxicity of longer linker and asymmetric compounds was confirmed in a 2 week colony formation assay using 5 different cell lines (FIG. 1B). Analysis of the cytotoxicity findings alone elucidated some key features of potential structure activity relationships. First, substitution of the central nitrogen substitution beyond methyl reduces activity. Second, there was no clear advantage of assymetric versus symmetric linkers (FIG. 2A) with regards to cytotoxicity alone. […]

autophagy = conditions: cited from earlier work

SMILES	apoptosis (annexin V) (A375 cells [1])	ROS (DHR_123 fluorescence) (A375 cells [2])	inhibition of autophagic flux (green/red ratio) [3]	potency on replacement of the Lys01 linker with longer linkers (A375P melanoma cells)	other results
CN(CCCCCCNc1ccnc2cc(Cl)ccc12)CCCCCCNc1ccnc2cc(Cl)ccc12.Cl [Lys75]	most apoptosis	highest levels of ROS	most effective at inhibiting autophagic flux	–	LC3II/actin (melanoma cell lines): most consistent and substantial increase; inhibition of growth and invasion of 3D spheroids [4]: most potent compound at inhibiting growth and invasion
Clc1ccc2c(NCCCCNCCCNc3ccnc4cc(Cl)ccc34)ccnc2c1 [Lys21]	most apoptosis	–	most effective at inhibiting autophagic flux	significant increases in potency	ability to induce apoptosis compared to comparable symmetric compounds (A375 cells [1]): superior; autophagy inhibition compared to comparable symmetric compounds [3]: superior autophagy inhibition
CCN(CCO)CCCC(C)Nc1ccnc2cc(Cl)ccc12 (centres unmarked) [HCQ, hydroxychloroquine]	–	–	–	–	concentrations required to inhibit autophagy (autophagy): High micromolar concentrations
CN(CCCCN(C)CCCNc1ccnc2cc(Cl)ccc12)CCCNc1ccnc2cc(Cl)ccc12 [Lys 25]	–	–	–	significant increases in potency	–
CN(CCCCNc1ccnc2cc(Cl)ccc12)CCCNc1ccnc2cc(Cl)ccc12 [Lys26]	–	highest levels of ROS	–	significant increases in potency	–
